Data as given in patent US6737383B1, “Herbicidal oxadiazolidines” (priority 1999, dated 2004).

Tests used:
blackgrass = assay: Test B pre/postemergence blackgrass; format: in vivo, Alopecurus myosuroides
Summary of the method: (§1)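 Test chemicals in a non-phytotoxic solvent mixture with surfactant were sprayed preemergence onto planted seeds and postemergence onto plants 2 to 18 cm tall (1- to 4-leaf stage). After twelve to sixteen days in a greenhouse, injury was visually rated against untreated controls from 0 (no effect) to 10 (complete control).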

surinam grass = assay: Test B pre/postemergence surinam grass; format: in vivo, Brachiaria decumbens
Summary of the method: as §1

cocklebur = assay: Test B pre/postemergence cocklebur; format: in vivo, Xanthium strumarium
Summary of the method: as §1

corn = assay: Test B pre/postemergence corn; format: in vivo, Zea mays
Summary of the method: as §1

crabgrass = assay: Test B pre/postemergence crabgrass; format: in vivo, Digitaria sanguinalis
Summary of the method: as §1

giant foxtail = assay: Test B pre/postemergence giant foxtail; format: in vivo, Setaria faberii
Summary of the method: as §1

morningglory = assay: Test B pre/postemergence morningglory; format: in vivo, Ipomoea hederacea
Summary of the method: as §1

pigweed = assay: Test B pre/postemergence pigweed; format: in vivo, Amaranthus retroflexus
Summary of the method: as §1

rape = assay: Test B pre/postemergence rape; format: in vivo, Brassica napus
Summary of the method: as §1

soybean = assay: Test B pre/postemergence soybean; format: in vivo, Glycine max
Summary of the method: as §1

sugar beet = assay: Test B pre/postemergence sugar beet; format: in vivo, Beta vulgaris
Summary of the method: as §1

velvetleaf = assay: Test B pre/postemergence velvetleaf; format: in vivo, Abutilon theophrasti
Summary of the method: as §1

wheat = assay: Test B pre/postemergence wheat; format: in vivo, Triticum aestivum
Summary of the method: as §1

wild oat = assay: Test B pre/postemergence wild oat; format: in vivo, Avena fatua
Summary of the method: as §1

purple nutsedge = assay: Test B pre/postemergence purple nutsedge; format: in vivo, Cyperus rotundus
Summary of the method: as §1

rice = assay: Test B flood test rice; format: in vivo, Oryza sativa
Summary of the method: (§2)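 Plants were grown to the 2-leaf stage before treatment with test chemical, then held in a greenhouse for twelve to sixteen days. Injury was visually rated against untreated controls on a 0–10 scale, where 0 is no effect and 10 is complete control.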

smallflower flatsedge = assay: Test B flood test smallflower flatsedge; format: in vivo, Cyperus difformis
Summary of the method: as §2

duck salad = assay: Test B flood test duck salad; format: in vivo, Heteranthera limosa
Summary of the method: as §2

bamyardgrass = assay: Test B flood test barnyardgrass; format: in vivo, Echinochloa crus-galli
Summary of the method: as §2

[1] = Postemergence, Rate 62 g/ha, scale 0 to 10, 0 is no effect, 10 is complete control
[2] = Postemergence, Rate 125 g/ha, scale of 0 to 10 where 0 is no effect and 10 is complete control
[3] = Postemergence, Rate 250 g/ha, scale of 0 to 10, 0 is no effect, 10 is complete control
[4] = Preemergence, Rate 62 g/ha, scale of 0 to 10 where 0 is no effect and 10 is complete control
[5] = Preemergence, Rate 125 g/ha, scale of 0 to 10 where 0 is no effect and 10 is complete control
[6] = Preemergence, Rate 250 g/ha, scale 0 to 10 (0 no effect, 10 complete control)
[7] = Preemergence, Rate 500 g/ha, scale of 0 to 10 where 0 is no effect and 10 is complete control
[8] = Rate 500 g/ha, Postemergence, scale 0 to 10, 0 is no effect, 10 is complete control
[9] = Rate 62 g/ha, flood test species, Pre-emergence, visual evaluation after twelve to sixteen days
[10] = Rate 125 g/ha, under heading Pre-emergence, flood test species, visual evaluation after twelve to sixteen days
[11] = Rate 250 g/ha, Pre-emergence (flood test species), scale 0 to 10, 0 is no effect, 10 is complete control
[12] = Rate 500 g/ha, Pre-emergence section of Table B, 0 to 10 scale (0 no effect, 10 complete control)

CC(C)N(C(=O)n1oc(=O)n(C(C)C)c1=O)c1ccncc1 [Compound 663]
Plant response rating, Blackgrass (blackgrass; [1]): 0
Blackgrass plant response rating (blackgrass; [2]): 0
Blackgrass plant response rating (blackgrass; [3]): 0
Blackgrass plant response rating (blackgrass; [4]): 0
Blackgrass plant response rating (blackgrass; [5]): 0
Plant response rating, Blackgrass (blackgrass; [6]): 0
Plant response rating, Blackgrass (blackgrass; [7]): 0
Blackgrass plant response rating (blackgrass; [8]): 2
Plant response rating, B. signalgrass (surinam grass; [1]): 0
Plant response rating, B. signalgrass (surinam grass; [2]): 0
B. signalgrass plant response rating (surinam grass; [3]): 0
B. signalgrass plant response rating (surinam grass; [4]): 0
B. signalgrass plant response rating (surinam grass; [5]): 0
Plant response rating, B. signalgrass (surinam grass; [6]): 0
Plant response rating, B. signalgrass (surinam grass; [7]): 0
B. signalgrass plant response rating (surinam grass; [8]): 0
Plant response rating, Cocklebur (cocklebur; [1]): 0
Cocklebur plant response rating (cocklebur; [2]): 0
Cocklebur plant response rating (cocklebur; [3]): 0
Cocklebur plant response rating (cocklebur; [4]): 0
Cocklebur plant response rating (cocklebur; [5]): 0
Plant response rating, Cocklebur (cocklebur; [6]): 0
Plant response rating, Cocklebur (cocklebur; [7]): 0
Cocklebur plant response rating (cocklebur; [8]): 2
Plant response rating, Corn (corn; [1]): 0
Corn plant response rating (corn; [2]): 0
Corn plant response rating (corn; [3]): 0
Corn plant response rating (corn; [4]): 0
Corn plant response rating (corn; [5]): 0
Plant response rating, Corn (corn; [6]): 0
Plant response rating, Corn (corn; [7]): 0
Corn plant response rating (corn; [8]): 0
Plant response rating, Crabgrass (crabgrass; [1]): 0
Crabgrass plant response rating (crabgrass; [2]): 0
Crabgrass plant response rating (crabgrass; [3]): 0
Crabgrass plant response rating (crabgrass; [4]): 0
Crabgrass plant response rating (crabgrass; [5]): 0
Plant response rating, Crabgrass (crabgrass; [6]): 0
Plant response rating, Crabgrass (crabgrass; [7]): 0
Crabgrass plant response rating (crabgrass; [8]): 4
Plant response rating, Giant foxtail (giant foxtail; [1]): 0
Giant foxtail plant response rating (giant foxtail; [2]): 0
Giant foxtail plant response rating (giant foxtail; [3]): 0
Giant foxtail plant response rating (giant foxtail; [4]): 0
Giant foxtail plant response rating (giant foxtail; [5]): 3
Plant response rating, Giant foxtail (giant foxtail; [6]): 5
Plant response rating, Giant foxtail (giant foxtail; [7]): 9
Giant foxtail plant response rating (giant foxtail; [8]): 4
Plant response rating, Morningglory (morningglory; [1]): 0
Morningglory plant response rating (morningglory; [2]): 0
Morningglory plant response rating (morningglory; [3]): 4
Morningglory plant response rating (morningglory; [4]): 0
Morningglory plant response rating (morningglory; [5]): 0
Plant response rating, Morningglory (morningglory; [6]): 0
Plant response rating, Morningglory (morningglory; [7]): 7
Morningglory plant response rating (morningglory; [8]): 4
Plant response rating, Redroot pigweed (pigweed; [1]): 0
Redroot pigweed plant response rating (pigweed; [2]): 0
Redroot pigweed plant response rating (pigweed; [4]): 0
Redroot pigweed plant response rating (pigweed; [5]): 0
Plant response rating, Redroot pigweed (pigweed; [6]): 7
Plant response rating, Redroot pigweed (pigweed; [7]): 7
Redroot pigweed plant response rating (pigweed; [8]): 0
Plant response rating, Rape (rape; [1]): 0
Rape plant response rating (rape; [2]): 0
Rape plant response rating (rape; [4]): 0
Rape plant response rating (rape; [5]): 0
Plant response rating, Rape (rape; [6]): 0
Plant response rating, Rape (rape; [7]): 4
Rape plant response rating (rape; [8]): 0
Soybean plant response rating (soybean; [2]): 0
Soybean plant response rating (soybean; [4]): 0
Soybean plant response rating (soybean; [5]): 0
Plant response rating, Soybean (soybean; [6]): 0
Plant response rating, Soybean (soybean; [7]): 2
Plant response rating, Sugarbeets (sugar beet; [1]): 0
Sugarbeets plant response rating (sugar beet; [2]): 0
Sugarbeets plant response rating (sugar beet; [4]): 0
Sugarbeets plant response rating (sugar beet; [5]): 0
Plant response rating, Sugarbeets (sugar beet; [6]): 0
Plant response rating, Sugarbeets (sugar beet; [7]): 0
Sugarbeets plant response rating (sugar beet; [8]): 4
Plant response rating, Velvetleaf (velvetleaf; [1]): 0
Velvetleaf plant response rating (velvetleaf; [2]): 0
Velvetleaf plant response rating (velvetleaf; [4]): 0
Velvetleaf plant response rating (velvetleaf; [5]): 0
Plant response rating, Velvetleaf (velvetleaf; [6]): 0
Plant response rating, Velvetleaf (velvetleaf; [7]): 3
Velvetleaf plant response rating (velvetleaf; [8]): 2
Plant response rating, Wheat (wheat; [1]): 0
Wheat plant response rating (wheat; [2]): 0
Wheat plant response rating (wheat; [4]): 0
Wheat plant response rating (wheat; [5]): 0
Plant response rating, Wheat (wheat; [6]): 0
Plant response rating, Wheat (wheat; [7]): 3
Wheat plant response rating (wheat; [8]): 0
Plant response rating, Wild oats (wild oat; [1]): 0
Wild oats plant response rating (wild oat; [2]): 0
Wild oats plant response rating (wild oat; [4]): 0
Wild oats plant response rating (wild oat; [5]): 0
Plant response rating, Wild oats (wild oat; [6]): 0
Plant response rating, Wild oats (wild oat; [7]): 0
Wild oats plant response rating (wild oat; [8]): 0
Plant response rating, Nutsedge (purple nutsedge; [1]): 0
Nutsedge plant response rating (purple nutsedge; [2]): 0
Nutsedge plant response rating (purple nutsedge; [4]): 0
Nutsedge plant response rating (purple nutsedge; [5]): 0
Plant response rating, Nutsedge (purple nutsedge; [6]): 0
Plant response rating, Nutsedge (purple nutsedge; [7]): 0
Nutsedge plant response rating (purple nutsedge; [8]): 0
Plant response rating, Rice (0 to 10 scale, 0 is no effect, 10 is complete control) (rice; [9]): 0
Rice plant response rating (0 to 10 scale, 0 is no effect, 10 is complete control) (rice; [10]): 0
Rice plant response rating (rice; [11]): 0
Rice plant response rating (rice; [12]): 0
Plant response rating, S. Flatsedge (0 to 10 scale, 0 is no effect, 10 is complete control) (smallflower flatsedge; [9]): 0
S. Flatsedge plant response rating (0 to 10 scale, 0 is no effect, 10 is complete control) (smallflower flatsedge; [10]): 0
S. Flatsedge plant response rating (smallflower flatsedge; [11]): 0
S. Flatsedge plant response rating (smallflower flatsedge; [12]): 0
Plant response rating, Ducksalad (0 to 10 scale, 0 is no effect, 10 is complete control) (duck salad; [9]): 0
Ducksalad plant response rating (0 to 10 scale, 0 is no effect, 10 is complete control) (duck salad; [10]): 0
Ducksalad plant response rating (duck salad; [11]): 0
Ducksalad plant response rating (duck salad; [12]): 0
Plant response rating, Barnyardgrass (0 to 10 scale, 0 is no effect, 10 is complete control) (bamyardgrass; [9]): 0
Barnyardgrass plant response rating (0 to 10 scale, 0 is no effect, 10 is complete control) (bamyardgrass; [10]): 0
Barnyardgrass plant response rating (bamyardgrass; [11]): 0
Barnyardgrass plant response rating (bamyardgrass; [12]): 0
